Laboratory results: patent US20240368139A1, “NOVEL MODULATORS OF EHMT1 AND EHMT2 AND THERAPEUTIC USE THEREOF” (Tango Therapeutics, Inc., priority 2021, published 2024)

Experiments:
H3K9me2 in HCT116 cells = assay: HCT116 H3K9me2 in-cell western assay; assay type: cell-based; conditions: Homo sapiens, HCT-116, 72 h, HCT116 cells, 72 hours incubation; read-out: H3K9me2 ICW IC50
How it was run: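 HCT116 cells (2,000/well) were treated for 72 h at 37° C, 5% CO2, with ten two-fold dilutions from 10 μM in duplicate. After PFA fixation, cells were stained overnight at 4° C with anti-H3K9me2, then with an 800 CW secondary plus DRAQ5.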

human EHMT1 982-1266 = biological target: T1, human EHMT1 982-1266 (Homo sapiens, UniProt Q9H9B1); assay: EHMT1 enzyme assay on histone peptide substrate (3H-SAM SPA); conditions: EHMT1 IC50, recombinant human EHMT1 982-1266, histone peptide substrate
T1 sequence (Q9H9B1 982-1266): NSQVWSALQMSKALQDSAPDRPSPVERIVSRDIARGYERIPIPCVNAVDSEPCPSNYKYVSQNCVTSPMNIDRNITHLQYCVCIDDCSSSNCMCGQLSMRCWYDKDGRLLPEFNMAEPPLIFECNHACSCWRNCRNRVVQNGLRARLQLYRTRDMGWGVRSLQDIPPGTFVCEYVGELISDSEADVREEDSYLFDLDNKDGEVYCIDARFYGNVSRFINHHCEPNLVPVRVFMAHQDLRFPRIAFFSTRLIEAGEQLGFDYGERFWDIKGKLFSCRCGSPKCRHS

human EHMT2 913-1193 = biological target: T2, human EHMT2 913-1193 (Homo sapiens, UniProt Q96KQ7); assay: EHMT2 enzyme assay on histone peptide substrate (3H-SAM SPA); conditions: EHMT2 IC50, recombinant human EHMT2 913-1193, histone peptide substrate
T2 sequence (Q96KQ7 913-1193): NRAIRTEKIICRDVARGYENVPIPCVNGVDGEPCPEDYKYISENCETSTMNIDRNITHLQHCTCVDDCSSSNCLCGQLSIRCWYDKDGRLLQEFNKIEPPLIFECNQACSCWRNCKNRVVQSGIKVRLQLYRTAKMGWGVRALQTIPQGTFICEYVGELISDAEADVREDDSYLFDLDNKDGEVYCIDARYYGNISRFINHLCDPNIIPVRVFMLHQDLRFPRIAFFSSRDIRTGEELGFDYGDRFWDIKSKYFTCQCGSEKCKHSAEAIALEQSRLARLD

| SMILES | IC50 (H3K9me2 in HCT116 cells) [nM] | IC50 (human EHMT1 982-1266) [nM] | IC50 (human EHMT2 913-1193) [nM] |
| --- | --- | --- | --- |
| [2H]C([2H])([2H])Nc1cc(C)nc(Nc2cc3c(c(C4=CCN(C)CCC4)c2)OCO3)n1 [Compound 273] | < 100 | < 100 | 100 to 500 |
| [2H]C([2H])([2H])N1CC=C(c2cc(Nc3nc(C)cc(NC)n3)cc3c2OCC3)CCC1 [Compound 274] | < 100 | < 100 | < 100 |
| [2H]C([2H])([2H])Nc1nc(Nc2cc3c(c(C4=CCNCCC4)c2)OCO3)nc(C)c1F [Compound 275] | 100 to 500 | 100 to 500 | 500 to 2000 |
| [2H]C([2H])([2H])Nc1nc(Nc2cc3c(c(C4=CCNCCC4)c2)OCC3)nc(C)c1F [Compound 276] | 100 to 500 | 100 to 500 | 100 to 500 |
| CNc1nc(Nc2cc3c(c(C4=CCNCCC4)c2)OCC3)nc(C)c1F [Compound 277] | 100 to 500 | 100 to 500 | 100 to 500 |
| CNc1cc(C)nc(Nc2cc3c(c(C4=CCN(C)CCC4)c2)OCC3)c1 [Compound 278] | 100 to 500 | < 100 | 100 to 500 |
| CNc1nc(Nc2cc3c(c(C4=CCNCCC4)c2)OCO3)nc(C)c1F [Compound 279] | 100 to 500 | 100 to 500 | 500 to 2000 |
| CNc1cc(C)nc(Nc2cc3c(c(C4=CCN(C)CCC4)c2F)OCC3)n1 [Compound 280, N2-[6-fluoro-7-(1-methyl-2,3,4,7-tetrahydroazepin-5-yl)-2,3-dihydrobenzofuran-5-yl]-N4,6-dimethyl-pyrimidine-2,4-diamine] | < 100 | < 100 | < 100 |
| [2H]C([2H])([2H])Nc1cc(C)nc(Nc2cc3c(c(C4=CCNCCC4)c2)OCO3)n1 [Compound 281] | < 100 | < 100 | < 100 |
| [2H]C([2H])([2H])Nc1cc(C)nc(Nc2cc3c(c(C4=CCN(C)CCC4)c2)OCCO3)n1 [Compound 282] | 100 to 500 | < 100 | 500 to 2000 |
| [2H]C([2H])([2H])Nc1cc(C)nc(Nc2cc3c(c(C4=CCNCCC4)c2)OCCO3)n1 [Compound 283] | < 100 | < 100 | < 100 |
| CNc1nc(Nc2cc3c(c(C4=CCNCCC4)c2)OCC3)nc(C)c1Cl [Compound 284] | 100 to 500 | 100 to 500 | 500 to 2000 |
| [2H]C([2H])([2H])CNc1cc(C)nc(Nc2cc3c(c(C4=CCNCCC4)c2)OCCO3)n1 [Compound 285] | 100 to 500 | 100 to 500 | 100 to 500 |
| CNc1nc(Nc2cc3c(c(C4=CCN(C)CCC4)c2)OCC3)nc(C)c1C [Compound 286] | 100 to 500 | < 100 | 100 to 500 |
| CNc1nc(Nc2cc3c(c(C4=CCNCCC4)c2)OCC3)nc(C)c1C [Compound 287] | < 100 | < 100 | < 100 |
| CNc1cc(C)nc(Nc2cc3c(c(C4=CCNCCC4)c2)OCC3)c1 [Compound 288] | 100 to 500 | < 100 | < 100 |
| Cc1cc(NCC2CCCO2)nc(Nc2cc3c(c(C4=CCN(C)CCC4)c2)OCC3)n1 (stereo not drawn) [Compound 292] | 100 to 500 | 100 to 500 | 100 to 500 |
| COCCCNc1cc(C)nc(Nc2cc3c(c(C4=CCNCCC4)c2)OCC3)c1 [Compound 293] | 500 to 2000 | 100 to 500 | 100 to 500 |
| Cc1cc(NCC2CCCO2)nc(Nc2cc3c(c(C4=CCNCCC4)c2)OCC3)n1 (stereo not drawn) [Compound 294] | 100 to 500 | < 100 | 100 to 500 |
| COCCCNc1cc(C)nc(Nc2cc3c(c(C4=CCN(C)CCC4)c2)OCC3)c1 [Compound 295] | 500 to 2000 | 100 to 500 | 500 to 2000 |
| [2H]C([2H])([2H])CNc1cc(C)nc(Nc2cc3c(c(C4=CCN(C)CCC4)c2)OCC3)n1 [Compound 296] | 100 to 500 | < 100 | 100 to 500 |
| COCCNc1cc(C)nc(Nc2cc3c(c(C4=CCN(C)CCC4)c2)OCC3)c1 [Compound 297] | 500 to 2000 | 100 to 500 | 500 to 2000 |
| COCCCNc1cc(C)nc(Nc2cc3c(c(C4=CCN(C)CCC4)c2)OCC3)n1 [Compound 298] | 100 to 500 | < 100 | 100 to 500 |
| Cc1cc(NCC2CCOCC2)nc(Nc2cc3c(c(C4=CCN(C)CCC4)c2)OCC3)n1 [Compound 299] | 100 to 500 | < 100 | 100 to 500 |
| [2H]C([2H])([2H])CNc1cc(C)nc(Nc2cc3c(c(C4=CCNCCC4)c2)OCC3)n1 [Compound 300] | 100 to 500 | < 100 | < 100 |

| SMILES | IC50 (H3K9me2 in HCT116 cells) [nM] | IC50 (human EHMT1 982-1266) [nM] | IC50 (human EHMT2 913-1193) [nM] |
| --- | --- | --- | --- |
| [2H]C([2H])([2H])Nc1cc(C)nc(Nc2cc3c(c(C4=CCN(C)CCC4)c2)OCC3)n1 [Compound 301] | 100 to 500 | < 100 | < 100 |
| [2H]Cc1cc(NC)nc(Nc2cc3c(c(C4=CCNCCC4)c2)OCC3)n1 [Compound 302] | < 100 | < 100 | < 100 |
| [2H]Cc1cc(NC)nc(Nc2cc3c(c(C4=CCN(C)CCC4)c2)OCC3)n1 [Compound 303] | < 100 | < 100 | < 100 |
| CNc1cc(Nc2cc3c(c(C4=CCNCCC4)c2)OCC3)nc(C)c1F [Compound 304] | 100 to 500 | < 100 | < 100 |
| COCCNc1cc(C)nc(Nc2cc3c(c(C4=CCNCCC4)c2)OCC3)c1 [Compound 305] | 500 to 2000 | 100 to 500 | 100 to 500 |
| [2H]C([2H])([2H])Nc1cc(C)nc(Nc2cc3c(c(C4=CCNCCC4)c2)OCC3)n1 [Compound 306] | < 100 | < 100 | < 100 |
| CNc1cc(C)nc(Nc2cc3c(c(C4=CCCNCC4C)c2)OCC3)n1 (stereo not drawn) [Compound 307] | 500 to 2000 | 100 to 500 | 500 to 2000 |
| Cc1cc(NCC2CCOCC2)nc(Nc2cc3c(c(C4=CCNCCC4)c2)OCC3)n1 [Compound 308] | 100 to 500 | < 100 | < 100 |
| Cc1cc(NCC(F)(F)F)cc(Nc2cc3c(c(C4=CCNCCC4)c2)OCC3)n1 [Compound 309] | 500 to 2000 | 100 to 500 | 500 to 2000 |
| COCCCNc1cc(C)nc(Nc2cc3c(c(C4=CCNCCC4)c2)OCC3)n1 [Compound 310] | 100 to 500 | < 100 | < 100 |
| CNc1cc(C)nc(Nc2cc3c(c(C4=CCNCCC4)c2)COC3)n1 [Compound 311] | 100 to 500 | 100 to 500 | 500 to 2000 |
| Cc1cc(NC2COC2)cc(Nc2cc3c(c(C4=CCN(C)CCC4)c2)OCC3)n1 [Compound 312] | 500 to 2000 | 100 to 500 | 500 to 2000 |
| Cc1cc(NC2COC2)cc(Nc2cc3c(c(C4=CCNCCC4)c2)OCC3)n1 [Compound 313] | 500 to 2000 | 100 to 500 | 100 to 500 |
| CNc1cc(C2CC2)nc(Nc2cc3c(c(C4=CCN(C)CCC4)c2)OCC3)n1 [Compound 314] | 100 to 500 | 100 to 500 | 500 to 2000 |
| CCNc1cc(C)nc(Nc2cc3c(c(C4=CCNCCC4)c2)OCC3)n1 [Compound 315] | 100 to 500 | 100 to 500 | 100 to 500 |
| CCc1cc(NC)nc(Nc2cc3c(c(C4=CCN(C)CCC4)c2)OCC3)n1 [Compound 316] | 100 to 500 | < 100 | 100 to 500 |
| CNc1cc(C2CC2)nc(Nc2cc3c(c(C4=CCNCCC4)c2)OCC3)n1 [Compound 317] | < 100 | < 100 | 100 to 500 |
| Cc1cc(NC2CCC2)nc(Nc2cc3c(c(C4=CCN(C)CCC4)c2)OCC3)n1 [Compound 318] | 100 to 500 | 100 to 500 | 500 to 2000 |
| CCc1cc(NC)nc(Nc2cc3c(c(C4=CCNCCC4)c2)OCC3)n1 [Compound 319] | < 100 | < 100 | < 100 |
| Cc1cc(NCC(F)(F)F)nc(Nc2cc3c(c(C4=CCN(C)CCC4)c2)OCC3)n1 [Compound 320] | 100 to 500 | 100 to 500 | 500 to 2000 |
| CCNc1cc(C)nc(Nc2cc3c(c(C4=CCN(C)CCC4)c2)OCC3)n1 [Compound 321] | 100 to 500 | < 100 | 100 to 500 |
| CNc1cc(C)nc(Nc2cc3c(c(C4=CCN(C)CCC4)c2)CCO3)n1 [Compound 333] | 500 to 2000 | 100 to 500 | 500 to 2000 |
| CNc1cc(C)nc(Nc2cc3c(c(N4C[C@H]5CNC[C@H]5C4)c2)OCCC3)n1 [Compound 338] | 100 to 500 | 100 to 500 | 500 to 2000 |
| CNc1cc(C)nc(Nc2cc3c(c(N4CCCNCC4)c2)OCCC3)n1 [Compound 339] | 100 to 500 | 100 to 500 | 500 to 2000 |
